The NIST ThermoML archive (doi:10.1021/je050413l)

Tests used:
[1] = 303.15 K, Liquid; for speed of sound / viscosity: 101 kPa; for mass density: 101.33 kPa, Pycnometric method
[2] = φn = volume fraction of the nth substance listed; conditions: 303.15 K, 101 kPa, Liquid
[3] = xn = mol fraction of the nth substance listed; conditions: 303.15 K, 101 kPa, Liquid, Direct dilatometry

Cc1ccccc1Cl [2-chlorotoluene]
[1]
Conditions	mass density [kg/m3]	speed of sound [m/s]	viscosity [mPa·s]
–	1072.77	1284	0.887

Cc1ccccc1Cl [2-chlorotoluene] + CC(=O)c1ccccc1
[2], φ2 = 0
Conditions	speed of sound [m/s]	viscosity [mPa·s]
–	1284	0.887

Cc1ccccc1[N+](=O)[O-] [2-nitrotoluene]
[1]
Conditions	mass density [kg/m3]	viscosity [mPa·s]
–	1153.26	1.911

Cc1ccccc1[N+](=O)[O-] [2-nitrotoluene] + CC(=O)c1ccccc1
Conditions	excess molar volume [m3/mol]	speed of sound [m/s]	viscosity [mPa·s]
[2], φ2 = 0	–	–	1.911
[2], φ2 = 0.0805	–	2017	1.91
[2], φ2 = 0.1011	–	1997	1.903
[2], φ2 = 0.2132	–	1889	1.857
[2], φ2 = 0.3245	–	1803	1.817
[2], φ2 = 0.4197	–	1737	1.781
[2], φ2 = 0.5086	–	1681	1.747
[2], φ2 = 0.6196	–	1622	1.701
[2], φ2 = 0.7297	–	1568	1.652
[2], φ2 = 0.7911	–	1541	1.624
[2], φ2 = 0.8704	–	1508	1.582
[3], x2 = 0.0812	1.1e-08	–	–
[3], x2 = 0.1019	1.5e-08	–	–
[3], x2 = 0.2147	2.4e-08	–	–
[3], x2 = 0.3265	3.3e-08	–	–
[3], x2 = 0.4219	3.9e-08	–	–
[3], x2 = 0.5109	4.2e-08	–	–
[3], x2 = 0.6217	3.7e-08	–	–
[3], x2 = 0.7315	2.6e-08	–	–
[3], x2 = 0.7926	2e-08	–	–
[3], x2 = 0.8714	1.1e-08	–	–

Cc1cccc(Cl)c1 [3-chlorotoluene]
[1]
Conditions	mass density [kg/m3]	speed of sound [m/s]	viscosity [mPa·s]
–	1065.22	1280	0.782

Cc1cccc(Cl)c1 [3-chlorotoluene] + CC(=O)c1ccccc1
Conditions	excess molar volume, [3] [m3/mol]	speed of sound, [2] [m/s]	viscosity, [2] [mPa·s]
x2 = 0.0524	1e-08	–	–
x2 = 0.103	1.5e-08	–	–
x2 = 0.2141	2.3e-08	–	–
x2 = 0.3119	2.9e-08	–	–
x2 = 0.4266	3.3e-08	–	–
x2 = 0.5009	3.4e-08	–	–
x2 = 0.6174	3.2e-08	–	–
x2 = 0.705	2.8e-08	–	–
x2 = 0.8519	1.5e-08	–	–
x2 = 0.952	6e-09	–	–
φ2 = 0	–	1280	0.782
φ2 = 0.052	–	1297	0.891
φ2 = 0.1022	–	1315	0.901
φ2 = 0.2127	–	1346	1.002
φ2 = 0.3101	–	1370	1.073
φ2 = 0.4246	–	1395	1.16
φ2 = 0.4988	–	1412	1.222
φ2 = 0.6154	–	1431	1.31
φ2 = 0.7033	–	1438	1.37
φ2 = 0.8508	–	1449	1.458
φ2 = 0.9516	–	1455	1.503

Cc1cccc([N+](=O)[O-])c1 [3-nitrotoluene]
[1]
Conditions	mass density [kg/m3]	viscosity [mPa·s]
–	1147.62	1.775

Cc1cccc([N+](=O)[O-])c1 [3-nitrotoluene] + CC(=O)c1ccccc1
Conditions	excess molar volume [m3/mol]	speed of sound [m/s]	viscosity [mPa·s]
[2], φ2 = 0	–	–	1.775
[2], φ2 = 0.0972	–	1987	1.748
[2], φ2 = 0.116	–	1972	1.745
[2], φ2 = 0.2051	–	1892	1.731
[2], φ2 = 0.3085	–	1808	1.713
[2], φ2 = 0.4191	–	1737	1.694
[2], φ2 = 0.5383	–	1666	1.666
[2], φ2 = 0.6446	–	1608	1.64
[2], φ2 = 0.7076	–	1580	1.623
[2], φ2 = 0.7994	–	1539	1.594
[2], φ2 = 0.886	–	1503	1.564
[3], x2 = 0.0984	1.8e-08	–	–
[3], x2 = 0.1174	2.1e-08	–	–
[3], x2 = 0.2074	3e-08	–	–
[3], x2 = 0.3115	3.9e-08	–	–
[3], x2 = 0.4225	4.7e-08	–	–
[3], x2 = 0.5417	5e-08	–	–
[3], x2 = 0.6478	4.3e-08	–	–
[3], x2 = 0.7105	3.5e-08	–	–
[3], x2 = 0.8016	2.5e-08	–	–
[3], x2 = 0.8874	1.4e-08	–	–
